Experiment [1] concerns the target T1, TLR8 (Homo sapiens, UniProt Q9NR97).
T1 construct: lymphocytes, monocytes and dendritic cells that express TLR7, TLR8 and TLR9; endogenous in cells; host or cells: human PBMCs from healthy donors
T1 sequence (Q9NR97 27-1041): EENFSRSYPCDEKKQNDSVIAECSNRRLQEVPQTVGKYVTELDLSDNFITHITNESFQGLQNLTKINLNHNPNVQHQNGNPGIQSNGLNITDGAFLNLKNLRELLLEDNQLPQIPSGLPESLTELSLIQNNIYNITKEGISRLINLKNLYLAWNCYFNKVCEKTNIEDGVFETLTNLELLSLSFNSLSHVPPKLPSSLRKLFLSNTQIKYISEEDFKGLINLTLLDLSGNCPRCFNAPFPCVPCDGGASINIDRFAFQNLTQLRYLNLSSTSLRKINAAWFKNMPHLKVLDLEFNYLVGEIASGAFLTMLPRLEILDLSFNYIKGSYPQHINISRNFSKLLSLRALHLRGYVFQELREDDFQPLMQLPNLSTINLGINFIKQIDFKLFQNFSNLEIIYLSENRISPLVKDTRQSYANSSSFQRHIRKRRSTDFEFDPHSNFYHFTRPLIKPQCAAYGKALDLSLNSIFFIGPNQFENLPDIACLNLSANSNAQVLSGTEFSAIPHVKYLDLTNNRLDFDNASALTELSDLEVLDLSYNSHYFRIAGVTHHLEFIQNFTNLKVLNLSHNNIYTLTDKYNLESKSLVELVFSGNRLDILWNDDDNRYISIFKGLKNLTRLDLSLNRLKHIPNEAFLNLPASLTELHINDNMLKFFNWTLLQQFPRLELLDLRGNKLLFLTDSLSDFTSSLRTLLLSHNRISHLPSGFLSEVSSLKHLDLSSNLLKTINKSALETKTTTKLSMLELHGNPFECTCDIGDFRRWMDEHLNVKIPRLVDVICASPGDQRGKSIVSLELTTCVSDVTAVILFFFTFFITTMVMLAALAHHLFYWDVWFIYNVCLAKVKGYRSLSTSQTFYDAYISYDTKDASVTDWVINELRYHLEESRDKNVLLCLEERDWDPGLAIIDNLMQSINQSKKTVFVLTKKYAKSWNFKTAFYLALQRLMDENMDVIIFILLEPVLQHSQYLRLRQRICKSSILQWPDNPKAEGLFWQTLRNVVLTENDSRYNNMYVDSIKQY
Put plainly: TLR8 human PBMC cell-based assay, TLR8 agonist Compound A stimulation, cytokine (TNFa and IL12p40) readout. The note with it: human PBMCs, Compound A 800 nM, 6 hours; Table 26; read-out: TLR-8 EC50. Here is the method: Cryopreserved human PBMCs from healthy donors were thawed and resuspended in RPMI-1640 media with L-glutamine (Corning) supplemented with 10% Fetal Bovine Serum (Hyclone) and 1X Penicillin-Streptomycin (Corning). After counting, the cell density was adjusted to 2 million cells/ml and incubated for 1 hour at 37° C., 5% CO2 for recovery. Following the recovery, the cells were plated by adding 50p per well (100,000 cells) to 384-well cell culture plates (Greiner) containing 250nl of test antagonists in 100% DMSO per well, in a 10 points dose response in quadruplicates. PBMCs were incubated in the presence of antagonists for one hour at 37° C., 5% CO2 before being stimulated with TLR8 agonist. Compound A (Gilead Sciences, U.S. Pat. No. 10,285,990) was used as the TLR8 agonist at a final concentration of 800 nM. PBMCs were incubated in the presence of antagonist and the TLR8 agonist for an additional 6 hours at 37° C., […]. At the end of the incubation, the cell culture plates were centrifuged at 500 g for 5 min, and the cell culture supernatant was collected. The level of cytokines (TNFa and IL12p40) in the supernatant was measured by electrochemiluminescence immunoassays (Mesoscale Discovery) following manufacturer's recommended protocols. The level of cytokine measured was plotted against the antagonist concentration and fitted to a sigmoidal function to determine the EC50, which are shown below in Table 11.

Experiment [2] deals with cloned hERG potassium channel encoded by the KCNH2 gene (Homo sapiens, UniProt Q12809). Put plainly: hERG FASTPatch assay (QPatch patch clamp, HEK293T cells). The note with it: HEK293T cells, 1, 3, 10 and 30 uM, room temperature; Table 27. Type of experiment: cell-based. Here is the method:
The FASTPatch® Assay (Charles River) was used to examine the in vitro effects of the compounds provided herein on the cloned hERG potassium channel encoded by the KCNH2 gene and stably expressed in HEK293T cells. Vehicle, test and control article formulations were prepared by diluting DMSO stock solutions in HB-PS (HEPES-buffered physiological saline solution) and were delivered to cells via the QPatch robot pipetting system to a final concentration of 0.3% DMSO. Test compound final concentrations of 1, 3, 10 and 30 uM were applied to cells (n >3, where n=the number of cells/concentration) in ascending order in at least three minute intervals separated by solution exchange. The positive control, 50 nM cisparide, was applied in the same manner. Cell membrane currents were recorded at room temperature with up to 48 parallel patch clamp amplifiers in the QPatch HT® or QPatch HTX® system, and only cells with validated whole-cell recordings (seal resistance >200 MQ and leak current <25% channel current) were used. Onset and block of hERG current was measured using a stimulus voltage pattern consisting of a 500 ms prepulse to −40 mV, a 2-second activating pulse to +40 mV, followed by a 2-second test pulse to −40 mV. The pulse pattern was repeated continuously at 10-second intervals from a holding potential of −80 mV. % Block={1-1/[1+([Test]/IC50)^N]}*100% Where [Test] is the concentration of test article, IC50 is the concentration of the test article producing half-maximal inhibition, N is the Hill coefficient and % Block is the percentage of current inhibited at each concentration of the test article. Nonlinear least squares fits will be solved with the Solver add-in for Excel 2000 or later (Microsoft, Redmon, WA). TurboSol analysis for test compound solubility was performed for each concentration tested using a Nephelostar reader measuring light scatter from a 635 nm laser source. Based on validation experiments, light scatter above four times the background level was considered an indication of the presence of particles in suspension.
(In general: The hERG channel carries a current that helps repolarise heart muscle cells.)

Sequence of cloned hERG potassium channel encoded by the KCNH2 gene (Q12809 whole entry): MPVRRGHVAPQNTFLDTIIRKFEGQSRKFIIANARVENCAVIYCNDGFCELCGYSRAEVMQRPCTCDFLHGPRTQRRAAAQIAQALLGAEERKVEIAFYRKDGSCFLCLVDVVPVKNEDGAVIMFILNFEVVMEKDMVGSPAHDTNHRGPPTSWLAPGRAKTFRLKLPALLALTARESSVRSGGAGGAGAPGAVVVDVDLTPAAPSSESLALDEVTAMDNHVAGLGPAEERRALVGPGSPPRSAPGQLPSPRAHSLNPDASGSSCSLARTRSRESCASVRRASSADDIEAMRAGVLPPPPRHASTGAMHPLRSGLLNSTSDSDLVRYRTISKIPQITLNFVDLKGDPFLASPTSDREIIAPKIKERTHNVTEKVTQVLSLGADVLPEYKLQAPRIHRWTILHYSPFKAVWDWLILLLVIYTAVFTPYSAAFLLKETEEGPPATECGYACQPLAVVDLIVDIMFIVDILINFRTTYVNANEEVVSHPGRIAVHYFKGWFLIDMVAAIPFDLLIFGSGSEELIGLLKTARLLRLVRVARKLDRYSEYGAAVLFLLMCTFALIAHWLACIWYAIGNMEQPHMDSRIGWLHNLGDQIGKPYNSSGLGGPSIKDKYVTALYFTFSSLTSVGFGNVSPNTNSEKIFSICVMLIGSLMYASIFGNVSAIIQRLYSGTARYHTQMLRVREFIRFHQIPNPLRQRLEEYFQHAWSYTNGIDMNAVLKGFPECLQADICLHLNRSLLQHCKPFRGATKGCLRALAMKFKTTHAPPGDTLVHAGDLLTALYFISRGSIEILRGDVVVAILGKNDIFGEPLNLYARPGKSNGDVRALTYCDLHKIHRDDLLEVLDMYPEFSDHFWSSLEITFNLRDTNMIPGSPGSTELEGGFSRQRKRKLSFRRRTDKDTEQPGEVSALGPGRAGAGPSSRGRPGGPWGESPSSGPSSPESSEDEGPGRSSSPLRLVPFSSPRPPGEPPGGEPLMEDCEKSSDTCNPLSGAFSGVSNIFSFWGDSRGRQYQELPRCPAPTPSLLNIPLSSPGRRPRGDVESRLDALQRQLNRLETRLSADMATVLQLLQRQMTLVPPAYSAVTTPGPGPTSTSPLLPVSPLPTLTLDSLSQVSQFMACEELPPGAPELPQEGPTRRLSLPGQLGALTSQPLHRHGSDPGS

The EC50 is the concentration needed to bring the measured effect to its halfway point. For `Cc1c(-c2cc(C)c3ncnn3c2)[nH]c2cc(-c3ccc(N4CCNCC4)nc3)ccc12` [Example 71], in experiment [1], the EC50 was determined as 35.9 nM.
With `Cc1cc(-c2[nH]c3cc(-c4ccc(N5CCN(CCO)CC5)nc4)ccc3c2C)cc(C)n1` [Example 37, 2-(4-(5-(2-(2,6-dimethylpyridin-4-yl)-3-methyl-1H-indol-6-yl)pyridin-2-yl)piperazin-1-yl)ethan-1-ol], the EC50 in experiment [1] is 631 nM.
Broadly, the IC50 is the concentration needed to halve the response being measured. Read a high IC50 as weaker potency in that assay. Turning to `Cc1cc(-c2[nH]c3cc(C4CCCNC4)ccc3c2C)cc(C)n1` (stereo not shown) [Example 53], in experiment [2], the IC50 came out at 19600 nM.
For `Cc1cc(-c2[nH]c3cc(C4CCNCC4)ccc3c2C(C)C)cn2ncnc12` [Example 55], in experiment [1], the 50% effective concentration (EC50) was 9.08 nM.
Same read-out and setting: next, `Cc1cc(-c2[nH]c3cc(C4CCNCC4)ccc3c2C)cc(C)n1` [Example 48, 2-(2,6-dimethylpyridin-4-yl)-3-methyl-6-(piperidin-4-yl)-1H-indole]: 570 nM.
The same measure, in the same setting: for `CCc1c(-c2cc(OC)c3ncnn3c2)[nH]c2cc(-c3ccc(N4CCNCC4)nc3)ccc12` [Example 169] the value was 3.35 nM.
`Cc1cc(-c2[nH]c3cc(-c4ccc(N5CCNCC5)nc4)ccc3c2C)cc(C)n1` [Example 1, 2-(2,6-dimethylpyridin-4-yl)-3-methyl-6-(6-(piperazin-1-yl)pyridin-3-yl)-1H-indole] gave a concentration for half-maximal inhibition (IC50) in experiment [2] of at least 30000 nM. Also, in experiment [1], the EC50 came out at 770 nM.
On to `Cc1cc(-c2[nH]c3cc(-c4ccc(N5CCNCC5)nc4)ccc3c2C2CC2)cn(C)c1=O` [Example 165], for which the EC50 in experiment [1] was found to be 8.46 nM.
On to `CCc1c(-c2cc(C)c3ncnn3c2)[nH]c2cc(-c3ccc(N4CCNCC4)nc3)ccc12` [Example 167, 6-(3-ethyl-6-(6-(piperazin-1-yl)pyridin-3-yl)-1H-indol-2-yl)-8-methyl-[1,2,4]triazolo[1,5-a]pyridine], for which the EC50 in experiment [1] is 3.75 nM.

The values are drawn from US20250002471A1 (Gilead Sciences, Inc., priority 2020, published 2025).
